Test results from patent publication US20010044463A1, “Methods for controlling gram negative bacteria in mammals” (priority 1997, published 2001).
In brackets after ≈: the same amount, converted by molar mass.

How the values were obtained:
[1] = system: H. pylori (urease negative) (Wild strain of ATCC 43504); experiment: Minimum Inhibitory Concentration (MIC) blood agar plate growth inhibition; assay type: cell-based, Helicobacter pylori; conditions: Table III
Method: (§1) Monensin (Sigma Cat. No. M-5273) was dissolved in 100% absolute ethanol (AAPER Alcohol and Chemical Co.) at a concentration of 20 mg/ml. Subsequent dilutions were made in ethanol immediately prior to use. Nigericin (Sigma Cat. No. N-7143) was dissolved in DMSO at 2 mg/ml. Subsequent dilutions were made in BHI medium (Brain heart infusion broth, Difco #0037-07-0) immediately prior to use.
(§2) Blood agar base (BAB) was prepared containing 1.5% agar and autoclaved. 20 ml samples of autoclaved BAB were poured into 50 mL tubes and placed in a 56° C. water bath.
(§3) 100 μl of a drug (final concentration equivalent to 1:200 of original concentration) and 1.2 ml of sheep blood (Colorado Senun Company # CS-1112) (blood diluted in a 1:1 buffer providing a 3% concentration of blood per 20 ml medium sample) were added to 20 ml sample of media and mixed. The mixed media preparation was poured into a petri dished and allowed to solidify.
(§4) Prior to inoculation of petri plates, bacteria or cultures were examined for morphology under a phase microscope to confirm motility and physical characteristics, e.g., spiral shaped. The organisms were washed off the plate into PBS (Phosphate buffered saline) (80.0 g NaCl, 2.0 g KCl, 2.4 g KH2PO4 11.5 g Na2HPO4 or 24.4 g Na2HPO4/2H2O per 1 liter deionized water, pH 7.2, sterilized by autoclaving) and diluted into BHI at a concentration of 10^8/ml (O.D. of 0.3 units diluted 1:30). Ten microliters of solution containing 10^6 organisms were spread onto a petri plate and grown under microaerophilic conditions for 3 days unless specified. Control organisms were grown under microaerophilic conditions.
(§5) Inhibition of growth was determined by the amount of colonies present within the petri plate. The following factors were used for growth inhibition: ±=0-20 colonies, +=20-50 colonies, ++=50-200 colonies and +++=200+ colonies.

[2] = system: H. pylori (urease positive) ATCC Number 51652; experiment: as above; assay type: cell-based, Helicobacter pylori; conditions: Table VIII
Method: as §1, §2, §3, §4, §5

H. pylori ATCC 43504 = experiment: as above; assay type: cell-based, Helicobacter pylori
Method: Subsequent dilutions were made in ethanol immediately prior to use. […] Subsequent dilutions were made in BHI medium (Brain heart infusion broth, Difco #0037-07-0) immediately prior to use.
as §2
The mixed media preparation was poured into a petri dished and allowed to solidify.
as §4, §5

Staph ATCC 14775 = experiment: Blood agar plate growth inhibition, control organism; assay type: cell-based
Method: as §1, §2, §3
as §4, with “Control organisms were grown under microaerophilic conditions.” left out
as §5

SMILES: CC[C@@]1([C@@H]2O[C@@H]([C@H]3O[C@@](O)(CO)[C@H](C)C[C@@H]3C)C[C@@H]2C)CC[C@H]([C@]2(C)CC[C@]3(C[C@H](O)[C@@H](C)[C@@H]([C@@H](C)[C@@H](OC)[C@H](C)C(=O)O)O3)O2)O1 [Monensin, monensin]
- growth (amount of colonies present within the petri plate) ([1]; final drug concentration 0.1 ng/ml): (+++) (+++=200+ colonies)
- growth (amount of colonies present within the petri plate) ([1]; final drug concentration 1 ng/ml): (+++) (+++=200+ colonies)
- growth (amount of colonies present within the petri plate) ([1]; final drug concentration 10 ng/ml): (+++) (+++=200+ colonies)
- growth (amount of colonies present within the petri plate) ([1]; final drug concentration 100 ng/ml): (+++) (+++=200+ colonies)
- growth (amount of colonies present within the petri plate) ([1]; final drug concentration 1 μg/ml): No growth
- growth (amount of colonies present within the petri plate) ([1]; final drug concentration 10 μg/ml): No growth
- growth (amount of colonies present within the petri plate) ([2]; final drug concentration 0.098 μg/ml): No growth
- growth (amount of colonies present within the petri plate) ([2]; final drug concentration 0.195 μg/ml): No growth
- growth (amount of colonies present within the petri plate) ([2]; final drug concentration 0.39 μg/ml): No growth
- growth (amount of colonies present within the petri plate) ([2]; final drug concentration 0.78 μg/ml): No growth
- growth (amount of colonies present within the petri plate) ([2]; final drug concentration 1.56 μg/ml): No growth
- growth (amount of colonies present within the petri plate) ([2]; final drug concentration 3.125 μg/ml): No growth
- growth (amount of colonies present within the petri plate) ([2]; final drug concentration 6.25 μg/ml): No growth
- growth (amount of colonies present within the petri plate) ([2]; final drug concentration 12.5 μg/ml): No growth
- growth (amount of colonies present within the petri plate) ([2]; final drug concentration 25 μg/ml): No growth
- growth (amount of colonies present within the petri plate) ([2]; final drug concentration 50 μg/ml): No growth
- growth (amount of colonies present within the petri plate) ([2]; final drug concentration 100 μg/ml): No growth
- MIC (H. pylori ATCC 43504; Helicobacter pylori, ATCC43504): 0.39 µg/mL (≈ 0.581 µM)
- growth (amount of colonies present within the petri plate) (H. pylori ATCC 43504; Table I, final drug concentration 0.1 ng/ml): (+++) (+++=200+ colonies)
- growth (amount of colonies present within the petri plate) (H. pylori ATCC 43504; Table I, final drug concentration 1 ng/ml): (+) (+=20-50 colonies)
- growth (amount of colonies present within the petri plate) (H. pylori ATCC 43504; Table I, final drug concentration 10 ng/ml): (+) (+=20-50 colonies)
- growth (amount of colonies present within the petri plate) (H. pylori ATCC 43504; Table I, final drug concentration 100 ng/ml): No growth
- growth (amount of colonies present within the petri plate) (H. pylori ATCC 43504; Table I, final drug concentration 1 μg/ml): No growth
- growth (amount of colonies present within the petri plate) (H. pylori ATCC 43504; Table I, final drug concentration 10 μg/ml): No growth
- growth (amount of colonies present within the petri plate) (H. pylori ATCC 43504; Table II, urease positive, final drug concentration 1 ng/ml): (+++) (+++=200+ colonies)
- growth (amount of colonies present within the petri plate) (H. pylori ATCC 43504; Table II, urease positive, final drug concentration 100 ng/ml): (+++) (+++=200+ colonies)
- growth (amount of colonies present within the petri plate) (H. pylori ATCC 43504; Table II, urease positive, final drug concentration 10 μg/ml): No growth
- growth (amount of colonies present within the petri plate) (H. pylori ATCC 43504; Table II, urease positive, final drug concentration 0.1 nglml): (+++) (+++=200+ colonies)
- growth (amount of colonies present within the petri plate) (H. pylori ATCC 43504; Table IV, urease positive, final drug concentration 0.1 ng/ml): (+++) (+++=200+ colonies)
- growth (amount of colonies present within the petri plate) (H. pylori ATCC 43504; Table IV, urease positive, final drug concentration 1 ng/ml): (+++) (+++=200+ colonies)
- growth (amount of colonies present within the petri plate) (H. pylori ATCC 43504; Table IV, urease positive, final drug concentration 10 ng/ml): (+++) (+++=200+ colonies)
- growth (amount of colonies present within the petri plate) (H. pylori ATCC 43504; Table IV, urease positive, final drug concentration 100 ng/ml): (+++) (+++=200+ colonies)
- growth (amount of colonies present within the petri plate) (H. pylori ATCC 43504; Table IV, urease positive, final drug concentration 1 μg/ml): No growth
- growth (amount of colonies present within the petri plate) (H. pylori ATCC 43504; Table IV, urease positive, final drug concentration 10 μg/ml): No growth
- growth (amount of colonies present within the petri plate) (H. pylori ATCC 43504; Table V, in the presence of 10 mM urea, final drug concentration 0.1 ng/ml, Nigericin assay done in duplicate): (+++) (+++=200+ colonies)
- growth (amount of colonies present within the petri plate) (H. pylori ATCC 43504; Table V, in the presence of 10 mM urea, final drug concentration 1 ng/ml, Nigericin assay done in duplicate): (+++) (+++=200+ colonies)
- growth (amount of colonies present within the petri plate) (H. pylori ATCC 43504; Table V, in the presence of 10 mM urea, final drug concentration 10 ng/ml, Nigericin assay done in duplicate): (+++) (+++=200+ colonies)
- growth (amount of colonies present within the petri plate) (H. pylori ATCC 43504; Table V, in the presence of 10 mM urea, final drug concentration 100 ng/ml, Nigericin assay done in duplicate): (+++) (+++=200+ colonies)
- growth (amount of colonies present within the petri plate) (H. pylori ATCC 43504; Table V, in the presence of 10 mM urea, final drug concentration 1 μg/ml, Nigericin assay done in duplicate): No growth
- growth (amount of colonies present within the petri plate) (H. pylori ATCC 43504; Table V, in the presence of 10 mM urea, final drug concentration 10 μg/ml, Nigericin assay done in duplicate): No growth
- growth (amount of colonies present within the petri plate) (H. pylori ATCC 43504; Table VI, in the presence of 2.5 mM urea, final drug concentration 1 ng/ml): (+++) (+++=200+ colonies)
- growth (amount of colonies present within the petri plate) (H. pylori ATCC 43504; Table VI, in the presence of 2.5 mM urea, final drug concentration 10 ng/ml): (+++) (+++=200+ colonies)
- growth (amount of colonies present within the petri plate) (H. pylori ATCC 43504; Table VI, in the presence of 2.5 mM urea, final drug concentration 1 μg/ml): No growth
- growth (amount of colonies present within the petri plate) (H. pylori ATCC 43504; Tables IX-XIII, final drug concentration 0.098 μg/ml): (+++) (+++=200+ colonies)
- growth (amount of colonies present within the petri plate) (H. pylori ATCC 43504; Tables IX-XIII, final drug concentration 0.195 μg/ml): (++) (++=50-200 colonies)
- growth (amount of colonies present within the petri plate) (H. pylori ATCC 43504; Tables IX-XIII, final drug concentration 0.39 μg/ml): (±) (±=0-20 colonies)
- growth (amount of colonies present within the petri plate) (H. pylori ATCC 43504; Tables IX-XIII, final drug concentration 0.78 μg/ml): No growth
- growth (amount of colonies present within the petri plate) (H. pylori ATCC 43504; Tables IX-XIII, final drug concentration 6.25 μg/ml): No growth
- growth (amount of colonies present within the petri plate) (H. pylori ATCC 43504; Tables IX-XIII, final drug concentration 12.5 μg/ml): No growth
- growth (amount of colonies present within the petri plate) (H. pylori ATCC 43504; Tables IX-XIII, final drug concentration 25 μg/ml): No growth
- growth (amount of colonies present within the petri plate) (H. pylori ATCC 43504; Tables IX-XIII, final drug concentration 50 μg/ml): No growth
- growth (amount of colonies present within the petri plate) (H. pylori ATCC 43504; Tables IX-XIII, final drug concentration 100 μg/ml): No growth
- growth (amount of colonies present within the petri plate) (Staph ATCC 14775; Table XIV, Non-microaerophilic conditions, final drug concentration 0.1 ng/ml): (+++) (+++=200+ colonies)
- growth (amount of colonies present within the petri plate) (Staph ATCC 14775; Table XIV, Non-microaerophilic conditions, final drug concentration 1 ng/ml): (+++) (+++=200+ colonies)
- growth (amount of colonies present within the petri plate) (Staph ATCC 14775; Table XIV, Non-microaerophilic conditions, final drug concentration 10 ng/ml): (+++) (+++=200+ colonies)
- growth (amount of colonies present within the petri plate) (Staph ATCC 14775; Table XIV, Non-microaerophilic conditions, final drug concentration 100 ng/ml): (+++) (+++=200+ colonies)
- growth (amount of colonies present within the petri plate) (Staph ATCC 14775; Table XIV, Non-microaerophilic conditions, final drug concentration 1 μg/ml): (+++***) (+++=200+ colonies)
- growth (amount of colonies present within the petri plate) (Staph ATCC 14775; Table XIV, Non-microaerophilic conditions, final drug concentration 10 μg/ml): No growth
- growth (amount of colonies present within the petri plate) (Staph ATCC 14775; Table XVI, Non-aerophilic conditions, final drug concentration 0.098 μg/ml): (+++) (+++=200+ colonies)
- growth (amount of colonies present within the petri plate) (Staph ATCC 14775; Table XVI, Non-aerophilic conditions, final drug concentration 0.195 μg/ml): (+++) (+++=200+ colonies)
- growth (amount of colonies present within the petri plate) (Staph ATCC 14775; Table XVI, Non-aerophilic conditions, final drug concentration 0.39 μg/ml): (+++) (+++=200+ colonies)
- growth (amount of colonies present within the petri plate) (Staph ATCC 14775; Table XVI, Non-aerophilic conditions, final drug concentration 0.78 μg/ml): (++) (++=50-200 colonies)
- growth (amount of colonies present within the petri plate) (Staph ATCC 14775; Table XVI, Non-aerophilic conditions, final drug concentration 1.56 μg/ml): (+)^2 (+=20-50 colonies)
- growth (amount of colonies present within the petri plate) (Staph ATCC 14775; Table XVI, Non-aerophilic conditions, final drug concentration 3.125 μg/ml): (+)^2 (+=20-50 colonies)
- growth (amount of colonies present within the petri plate) (Staph ATCC 14775; Table XVI, Non-aerophilic conditions, final drug concentration 6.25 μg/ml): (+)^2 (+=20-50 colonies)
- growth (amount of colonies present within the petri plate) (Staph ATCC 14775; Table XVI, Non-aerophilic conditions, final drug concentration 12.5 μg/ml): (±)^1 (±=0-20 colonies)
- growth (amount of colonies present within the petri plate) (Staph ATCC 14775; Table XVI, Non-aerophilic conditions, final drug concentration 25 μg/ml): (±)^1 (±=0-20 colonies)
- growth (amount of colonies present within the petri plate) (Staph ATCC 14775; Table XVI, Non-aerophilic conditions, final drug concentration 50 μg/ml): No growth
- growth (amount of colonies present within the petri plate) (Staph ATCC 14775; Table XVI, Non-aerophilic conditions, final drug concentration 100 μg/ml): No growth
